In article PMC8113459, “Selective inhibition of cullin 3 neddylation through covalent targeting DCN1 protects mice from acetaminophen-induced liver toxicity” (Nature Communications, 2021):

Key:
neddylation of cullin 3 = experiment: Western blot, cullin 3 neddylation in THLE2 liver cells; assay type: cell-based, human
Protocol: Western blotting was performed as described previously. Treated cells were lysed by RIPA buffer supplemented with protease inhibitor. The expression level of indicated proteins was examined by immunoblotting analysis and GAPDH was used as the loading control. Antibodies were purchased commercially: cullin 1 (sc-17775, 1:500 dilution) and cullin 2 (sc-166506, 1:500 dilution) from Santa Cruz Biotech (Santa Cruz, CA); cullin 4A (PA5-14542, 1:1000 dilution), cullin 4B (PA5-50647, 1:1000 dilution), and DCN3 (DCUN1D3, PA5-44000, 1:1000 dilution) from Thermo Fisher Scientific (Wayne, MI); cullin 3 (2759, 1:1000), NRF2 (12721, 1:1000 dilution), HO-1 (70081, 1:1000 dilution), and Bim (2819, 1:1000 dilution) from Cell Signaling Technology (Boston, MA); DCN1 (GWB-E3D700, 1:1000 dilution) from GenWay Biotech (San Diego, CA); and cullin 5 (A302-173A, 1:500 dilution) from Bethyl Labs (Montgomery, TX). Results are representative of two independent experiments.

four cancer cell lines = experiment: Cell viability assay (WST-8), four cancer cell lines; assay type: cell-based, human; details: concentrations up to 1000 nM, 72 h
Protocol: Cell viability assay was performed as previously described. The effect of DCN1 inhibitors on cell growth was evaluated by a WST-8 [2-(2-methoxy-4-nitrophenyl)-3-(4-nitrophenyl)-5-(2,4-disulfophenyl)-2H-tetrazolium, monosodium salt assay (Dojindo Molecular Technologies, Inc). Cells (2000–3000 cells in each well) were seeded in 96-well tissue culture plates in medium (100 μL) and treated with serial dilution of DCN1 inhibitors for 3 days. At the end of incubation, WST-8 dye (20 μL) was added to each well and incubated for 1–3 h, then the absorbance was measured in a microplate reader (Molecular Devices) at 450 nm. Cell growth inhibition was evaluated as the ratio of the absorbance of the sample to that of the control. The values were inserted into Prism software, and the curves and the EC50 values were produced by Prism software.

DCN1 = DCN1 (Homo sapiens, UniProt Q96GG9); experiment: Intact-protein mass spectrometric analysis, Method B (DCN1); assay type: binding; details: 1 h incubation, 100 nM protein
DCN1, sequence (Q96GG9 whole entry, the tested form may be a part): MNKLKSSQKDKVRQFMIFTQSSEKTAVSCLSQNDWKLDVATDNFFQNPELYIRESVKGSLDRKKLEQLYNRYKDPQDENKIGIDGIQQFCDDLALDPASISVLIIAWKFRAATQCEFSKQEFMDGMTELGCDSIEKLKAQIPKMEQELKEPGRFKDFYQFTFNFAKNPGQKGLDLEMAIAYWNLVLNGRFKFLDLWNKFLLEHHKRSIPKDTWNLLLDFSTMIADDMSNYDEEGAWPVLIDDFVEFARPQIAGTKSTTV
Protocol: Method B: Recombinant DCN1 or DCN3 protein (100 nM in 25 mM Tris 7.5, 200 mM NaCl, 1 mM DTT buffer) was incubated with 1.2-fold excess of the DCN1 inhibitors at 37 °C for 10 min, 1 h, or 3 h. Following incubation, the protein was analyzed by LC–MS (Agilent Q-TOF 6545) under the following conditions: fragmentor voltage, 300 V; skimmer voltage, 75 V; nozzle voltage, 100 V; sheath gas temperature, 350 °C; and drying gas temperature, 325 °C. MassHunter Qualitative Analysis software (Agilent) was used to analyze the data. Intact protein masses were obtained using the maximum entropy deconvolution algorithm. The mass spectrometry data in Supplementary Figs. 14–17 were generated by Method B.

| SMILES | times more potent than MLN4924 in inhibition of the neddylation of cullin 3 (neddylation of cullin 3) | cytotoxicity / cell viability (four cancer cell lines) | covalent complex formation with DCN1 (DCN1) |
| --- | --- | --- | --- |
| C=C(CN(C)C)C(=O)NC[C@@H](NC(=O)[C@H](Cc1nc2ccc(C(C)C)cc2s1)NC(=O)CC)C1CCCCC1 [DI-1859] | ~ 30 times | – | – |
| C=C(CN1CCOCC1)C(=O)NC[C@@H](NC(=O)[C@H](Cc1nc2ccc(C(C)C)cc2s1)NC(=O)CC)C1CCCCC1 [DI-1548] | – | no cytotoxicity | rapid and complete formation |
